Columns and labels:
Assay in all cases: NCI 60 cell line screen, sulforhodamine B, 48 h
Type in all cases: cell-based, human
[1] = tested on: A498
Protocol: (§1) A detailed description of the screening procedure can be found at hypertext transfer protocol (http://) “dtp.nci.nih.gov/branches/btb/ivclsp.html.”
(§2) In brief, each of the 60 human tumor cell lines were grown in RPMI 1640 medium, supplemented with 5% fetal bovine serum and 2 mM L-glutamine. Cells were plated at their appropriate density in 96-well microtiter plates and incubated at 37° C., 5% CO2, 95% air and 100% relative humidity. […] Cells were incubated for an additional 48 hours and a sulforhodamine B protein assay was used to estimate cell viability or growth.

[2] = tested on: BT-459
Protocol: as §1, §2

[3] = tested on: CAK1-1; settings: CAK1-1, Renal Cancer
Protocol: as §1, §2

[4] = tested on: COLO 205; settings: COLO 205, Colon Cancer
Protocol: as §1, §2

[5] = tested on: DU-145
Protocol: as §1, §2

[6] = tested on: EKVX; settings: Non-Small Cell Lung Cancer
Protocol: as §1, §2

[7] = tested on: HCI-H23; settings: HCI-H23, Non-Small Cell Lung Cancer
Protocol: as §1, §2

[8] = tested on: HCT-116; settings: HCT-116, Colon Cancer
Protocol: as §1, §2

[9] = tested on: HT29
Protocol: as §1, §2

[10] = tested on: K-562; settings: K-562, Leukemia
Protocol: as §1, §2

[11] = tested on: LOX IMVI; settings: Melanoma
Protocol: as §1, §2

[12] = tested on: MDA-MB-231/ATCC; settings: Breast Cancer
Protocol: as §1, §2

[13] = tested on: MDA-N; settings: Breast Cancer
Protocol: as §1, §2

[14] = tested on: NCI-H522; settings: NCI-H522, Non-Small Cell Lung Cancer
Protocol: as §1, §2

[15] = tested on: NCVADR-RES
Protocol: as §1, §2

[16] = tested on: OVCAR-4; settings: OVCAR-4, Ovarian Cancer
Protocol: as §1, §2

[17] = tested on: OVCAR-5; settings: OVCAR-5, Ovarian Cancer
Protocol: as §1, §2

[18] = tested on: PC-3
Protocol: as §1, §2

[19] = tested on: RPMI-8226
Protocol: as §1, §2

[20] = tested on: RXF393; settings: RXF393, Renal Cancer
Protocol: as §1, §2

[21] = tested on: SK-MEL-2; settings: SK-MEL-2, Melanoma
Protocol: as §1, §2

[22] = tested on: SN12C; settings: Renal Cancer
Protocol: as §1, §2

[23] = tested on: SNB-75; settings: SNB-75, CNS Cancer
Protocol: as §1, §2

[24] = tested on: SR; settings: Leukemia
Protocol: as §1, §2

[25] = tested on: SW-620; settings: SW-620, Colon Cancer
Protocol: as §1, §2

[26] = tested on: T-47D
Protocol: as §1, §2

[27] = tested on: T86-0
Protocol: as §1, §2

[28] = tested on: TK-10; settings: TK-10, Renal Cancer
Protocol: as §1, §2

[29] = tested on: UACC-257
Protocol: as §1, §2

[30] = tested on: UACC-62
Protocol: as §1, §2

[31] = Homo sapiens, 60 cell, read-out: Log10 LC50 (converted)

C[C@@]12OC(=O)[C@]1([C@@H](O)[C@@H]1C=CCCC1)NC(=O)[C@@H]2CCCl [Formula II-16, Salinosporamide A]
Log10 G150 ([1]; A498, Renal Cancer): <-8.00 Molar | Log10 TGI ([1]; A498, Renal Cancer): <-8.00 Molar | CC50 ([1]; Homo sapiens, A498, read-out: Log10 LC50 (converted)): 11.5 nM | Log10 G150 ([2]; BT-459, Breast Cancer): <-8.00 Molar | Log10 TGI ([2]; BT-459, Breast Cancer): <-8.00 Molar | CC50 [2, 31]: 60.3 nM | Log10 G150 [3]: <-8.00 Molar | Log10 TGI [3]: >-4.00 Molar | Log10 G150 [4]: <-8.00 Molar | Log10 TGI [4]: -6.19 Molar | Log10 G150 ([5]; DU-145, Prostate Cancer): <-8.00 Molar | Log10 TGI ([5]; DU-145, Prostate Cancer): >-4.00 Molar | CC50 ([5]; Homo sapiens, DU-145, read-out: Log10 LC50 (converted)): > 100000 nM | Log10 G150 [6]: <-8.00 Molar | Log10 TGI [6]: -5.67 Molar | Log10 G150 [7]: <-8.00 Molar | Log10 TGI [7]: -7.85 Molar | Log10 G150 [8]: <-8.00 Molar | Log10 TGI [8]: -7.14 Molar | Log10 G150 ([9]; HT29, Colon Cancer): <-8.00 Molar | Log10 TGI ([9]; HT29, Colon Cancer): -7.37 Molar | CC50 ([9]; Homo sapiens, HT-29, read-out: Log10 LC50 (converted)): 38000 nM | Log10 G150 [10]: <-8.00 Molar | Log10 TGI [10]: -5.59 Molar | Log10 G150 [11]: <-8.00 Molar | Log10 TGI [11]: -7.87 Molar | Log10 G150 [12]: <-8.00 Molar | Log10 TGI [12]: <-8.00 Molar | Log10 G150 [13]: <-8.00 Molar | Log10 TGI [13]: <-8.00 Molar | Log10 G150 [14]: <-8.00 Molar | Log10 TGI [14]: <-8.00 Molar | CC50 [15, 31]: 178 nM | Log10 G150 ([15]; NCVADR-RES, Breast Cancer): <-8.00 Molar | Log10 TGI ([15]; NCVADR-RES, Breast Cancer): <-8.00 Molar | Log10 G150 [16]: <-8.00 Molar | Log10 TGI [16]: <-8.00 Molar | Log10 G150 [17]: <-8.00 Molar | Log10 TGI [17]: -7.28 Molar | CC50 ([18]; Homo sapiens, PC-3, read-out: Log10 LC50 (converted)): 11700 nM | Log10 G150 ([18]; PC-3, Prostate Cancer): <-8.00 Molar | Log10 TGI ([18]; PC-3, Prostate Cancer): -5.81 Molar | CC50 ([19]; Homo sapiens, RPMI-8226, read-out: Log10 LC50 (converted)): > 100000 nM | Log10 G150 ([19]; RPMI-8226, Leukemia): <-8.00 Molar | Log10 TGI ([19]; RPMI-8226, Leukemia): <-8.00 Molar | Log10 G150 [20]: <-8.00 Molar | Log10 TGI [20]: <-8.00 Molar | Log10 G150 [21]: <-8.00 Molar | Log10 TGI [21]: <-8.00 Molar | Log10 G150 [22]: <-8.00 Molar | Log10 TGI [22]: <-8.00 Molar | Log10 G150 [23]: <-8.00 Molar | Log10 TGI [23]: <-8.00 Molar | Log10 G150 [24]: <-8.00 Molar | Log10 TGI [24]: <-8.00 Molar | Log10 G150 [25]: <-8.00 Molar | Log10 TGI [25]: >-4.00 Molar | CC50 ([26]; Homo sapiens, T47D, read-out: Log10 LC50 (converted)): > 100000 nM | Log10 G150 ([26]; T-47D, Breast Cancer): <-8.00 Molar | Log10 TGI ([26]; T-47D, Breast Cancer): >-4.00 Molar | CC50 [27, 31]: > 100000 nM | Log10 G150 ([27]; T86-0, Renal Cancer): <-8.00 Molar | Log10 TGI ([27]; T86-0, Renal Cancer): -5.37 Molar | Log10 G150 [28]: <-8.00 Molar | Log10 TGI [28]: -7.13 Molar | CC50 ([29]; Homo sapiens, UACC-257, read-out: Log10 LC50 (converted)): 427 nM | Log10 G150 ([29]; UACC-257, Melanoma): <-8.00 Molar | Log10 TGI ([29]; UACC-257, Melanoma): <-8.00 Molar | CC50 ([30]; Homo sapiens, UACC-62, read-out: Log10 LC50 (converted)): 91.2 nM | Log10 G150 ([30]; UACC-62, Melanoma): <-8.00 Molar | Log10 TGI ([30]; UACC-62, Melanoma): <-8.00 Molar
